Experimental data: patent US12522628B2, “Aryl glucoside derivative and use thereof in drug” (SHANGHAI ZHEYE BIOTECHNOLOGY CO. LTD., priority 2020, dated 2026)
Each block holds one compound with its values, some of them ahead of it.

Key:
[1] = target: T1, SGLT1 (Homo sapiens, UniProt P13866); experiment: HSGLT1 inhibitor activity experiment: 2-NBDG uptake by HEK293 cells stably expressing human SGLT1; type: cell-based; design: expressed in transfected cells; host or cells: HEK293; details: for IC50: 2-NBDG uptake, HEK293 stably expressing human SGLT1, read-out: SGLT1 Inhibitory Activity
T1 sequence (P13866 1-664): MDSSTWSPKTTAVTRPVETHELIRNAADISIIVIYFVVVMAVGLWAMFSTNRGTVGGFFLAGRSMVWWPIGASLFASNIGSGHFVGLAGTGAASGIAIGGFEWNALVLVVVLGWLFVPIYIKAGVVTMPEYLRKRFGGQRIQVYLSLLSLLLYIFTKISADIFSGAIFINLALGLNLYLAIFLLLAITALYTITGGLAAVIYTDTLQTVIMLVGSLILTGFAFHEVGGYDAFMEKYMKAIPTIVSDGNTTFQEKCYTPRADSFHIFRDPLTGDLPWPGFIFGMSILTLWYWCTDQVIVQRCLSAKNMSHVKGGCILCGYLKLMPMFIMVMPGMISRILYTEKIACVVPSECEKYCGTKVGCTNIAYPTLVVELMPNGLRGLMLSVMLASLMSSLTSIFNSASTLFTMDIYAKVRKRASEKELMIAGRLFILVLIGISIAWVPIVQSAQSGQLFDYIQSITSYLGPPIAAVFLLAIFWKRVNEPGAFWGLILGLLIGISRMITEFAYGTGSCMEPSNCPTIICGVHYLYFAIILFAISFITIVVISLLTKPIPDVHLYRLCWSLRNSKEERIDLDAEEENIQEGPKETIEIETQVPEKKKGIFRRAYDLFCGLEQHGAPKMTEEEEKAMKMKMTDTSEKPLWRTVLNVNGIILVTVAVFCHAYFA
Experimental: Inhibitory activity testing was performed with reference to a similar method described in document (Acta Pharmaceutica Sinica 2017, 52(6):897-903; Nature Protocols (2007), 2(3), 753-762; Journal of Biochemical and Biophysical Methods (2005), 64(3), 207-215; Diabetes Technology & Therapeutics (2011), 13(7), 743-775).
In this experiment, the in vitro activity assay was evaluated using the uptake of 2-NBDG (2-Deoxy-2-[(7-nitro-2,1,3-benzoxadiazol-4-yl)amino]-D-glucose, CAS NO: 186689-07-6) by human embryonic kidney epithelial cells (HEK293, stably expressing human SGLT1), and the SGLT1 inhibitory activity of the target compound was determined by measuring its half-maximal inhibitory concentration (IC50).
HEK293 cells that can stably express human SGLT1 gene were inoculated into a 96-well clear-bottom black plates containing DMEM medium. The cells were incubated at 37° C., 5% CO2in a cell incubator. The medium in the 96-well plate was aspirated, and the plate was treated with low-glucose serum-free DMEM medium, and washed once with non-specific uptake buffer and once with Na^+-dependent uptake buffer. Uptake buffer containing test compound was added to each well of cells, followed by uptake buffer containing 2-NBDG for glucose uptake, and the cell plate was incubated at 37° C., 5% CO2. The compounds were gradiently diluted. The uptake reaction was stopped by removing the culture medium, and after washing the cells with ice-cold uptake buffer, the washing solution was removed. The cells were lysed by adding NaOH, and the content of 2-NBDG in the cells was detected by a fluorescence microplate reader. The protein concentration of the lysate was measured by BCA method, the uptake of 2-NBDG was quantified by fluorescence intensity/protein content, and the obtained data were analyzed using GraphPad Prism to determine the median inhibitory concentration (IC50) of the compound to be tested.

[2] = Pharmacokinetic study in rats; type: in vivo, SD rats; details: 10 mg/kg, oral gavage; for bioavailability: male, SD, rat, plasma, po, read-out: Absolute Bioavailability(F %)
Experimental: • Experimental animals: SPF male SD rats; • Dosage and method of administration: 10 mg/kg, oral gavage.
Research compound: Dapagliflozin, the compound of Example 5, the compound of Example 7, the compound of Comparative Example 6; • Test method: Before administration (0), and 1, 4, 8, and 24 hours after administration, 0.2 ml of blood was collected from orbital venous plexus, anticoagulated with heparin, and plasma was collected.

[3] = tested on: blood glucose; experiment: Oral glucose tolerance test (OGTT) after continuous administration in rats for 14 days; type: in vivo, SD rats; details: 0.012 mg/kg oral gavage, OGTT on day 15
Experimental: • Experimental animals: SPF male SD rats; • Compound preparation: an appropriate amount of the compounds of Example 2, Example 3, and Example 5 were weighed, and uniformly suspended with an appropriate amount of 0.5% CMC-Na solution; • Preparation of glucose solution: an appropriate amount of glucose powder was weighed and dissolved with an appropriate amount of pure water; • Dosage and method of administration: 0.012 mg/kg, oral gavage.
(§1) Experimental process: the animals were fed a normal diet with consecutive administration for 14 days, and the glucose tolerance test was performed on day 15, blood glucose was detected before administration (−30 min), before giving glucose (0 min), and 10, 30, 60, and 120 min after giving glucose solution, and the defecation of animals was observed.

[4] = Observation of defecation (loose stools) in rats during OGTT study; type: in vivo, SD rats; details: 0.012 mg/kg oral gavage, within 48 hours before and after the experiment
Experimental: as §1

[5] = target: T1, SGLT1; experiment: SGLT1 Inhibitor Activity Experiment 1; type: cell-based
Experimental: The inhibitory activity of SGLT1 was tested with reference to the method described in document (Journal of Medicinal Chemistry 2017, 60, 710-721, Discovery of LX2761, a Sodium-Dependent Glucose Cotransporter 1 (SGLT1) Inhibitor Restricted to the Intestinal Lumen, for the Treatment of Diabetes).

[6] = Lipid solubility and water solubility compared with Example 5; type: physicochemical
[7] = tested on: rat feces suspension; experiment: Intestinal microbial metabolic stability in rat feces suspension; type: in vitro ADME; details: for Remaining percentage of compound: rat feces suspension, 37 C
Experimental: Methods: The collected rat feces were processed, and the feces suspension was obtained for the determination of metabolic stability. The mixed reaction system consisting of the rat feces suspension and the compound of Example 5 was incubated at 37 C for 3 h, 6 h, 12 h and 24 h. The compound of Example 5 in the incubation system was analyzed to determine the total amount of remaining compound. Wherein, “+” represents the remaining percentage being: <50%; “++” represents the remaining percentage being: 50% to 70%; “+++” represents the remaining percentage being: 70% to 90%; […].

[8] = Observation of defecation (loose stools) in mice, day 1 to day 5; type: in vivo
Experimental: (§2) • Experimental animals: SPF male mice; • Compound preparation: an appropriate amount of the compounds of Example 5 was weighed, and uniformly suspended with an appropriate amount of 0.5% CMC-Na solution; • Preparation of glucose solution: an appropriate amount of glucose powder was weighed and dissolved with an appropriate amount of pure water; • Administration and dosage: oral gavage; blank vehicle group, high-dose group (1.6 mg/kg), low-dose group (0.12 mg/kg).
(§3) Experimental process: • (1) The mice were fed a high-sugar diet for 6 days, and then grouped (10 mice in each group) to enter the administration stage; • (2) Example compound 5 was administered at 5:00 pm every day from day 1 to day 5, once a day, and then the animals were fed a high-sugar free diet, and the defecation of the animals was observed. • (3) On day 6, oral glucose tolerance test was performed, and glucose solution (2 g/kg) was orally administered. Blood glucose was detected before (0 min) and 10, 30, and 60 min after giving glucose solution, respectively.

[9] = tested on: blood glucose; experiment: Oral glucose tolerance test (OGTT) after consecutive administration in mice; type: in vivo; details: oral gavage 5 days, OGTT on day 6
Experimental: as §2, §3

[10] = tested on: blood glucose; experiment: In vivo hypoglycemic efficacy experiment combined with sitagliptin, STZ-induced type 2 diabetes mouse model; design: species or system Balb/C male mice
Experimental: Model establishment: SPF grade Balb/C male mice were used in this experiment, and the establishment of the type 2 diabetes mouse model was induced by intraperitoneal injection of streptozotocin (STZ) supplemented by high-fat and high-sugar diet.
Administration: normal group, model group, low-dose combined administration group (the compound of Example 5 0.02 mg/kg+sitagliptin 20 mg/kg), medium-dose combined administration group (the compound of Example 5 0.06 mg/kg+sitagliptin 20 mg/kg), high-dose combined administration group (the compound of Example 5 0.1 mg/kg+sitagliptin 20 mg/kg), sitagliptin group (20 mg/kg). The normal group and the model group were given the solvent by gavage.

activity of inhibiting SGLT1 (in words) [1]: significant activity of inhibiting SGLT1
IC50 [1]: 1.01 nM
SMILES: CS[C@H]1O[C@@H](c2ccc(C)c(Cc3ccc(CCCC(=O)NCCN(C)Cc4ccccc4)cc3)c2)[C@H](O)[C@@H](O)[C@@H]1O [Example 4]

IC50 [5]: < 50 nM
absorption in vivo after oral administration (in words) [2]: almost no absorption in vivo
detection in vivo after oral administration (in words) [2]: hardly detected in vivo
bioavailability [2]: < 1.5%
SMILES: C#CCN(C)CCNC(=O)CCOCc1ccc(Cc2cc([C@@H]3O[C@H](SC)[C@@H](O)[C@H](O)[C@H]3O)ccc2C)cc1 [Example 7]

activity of inhibiting SGLT1 (in words) [1]: significant activity of inhibiting SGLT1
IC50 [1]: 0.97 nM
loose stools in experimental animals [4]: no loose stools were observed
SMILES: CS[C@H]1O[C@@H](c2ccc(C)c(Cc3ccc(CCCC(=O)NCCN4CCN(C)CC4)cc3)c2)[C@H](O)[C@@H](O)[C@@H]1O [Example 2]
blood sugar level of rats in OGTT [3]: significantly reduce the blood sugar level

remaining compound ([7]; incubated with microorganisms in rat feces for about 24 hours): > 70%
number of animals with loose stools ([8]; high dose group (1.6 mg/kg), day 1): 1 animal
loose stools (in words) ([8]; high dose group (1.6 mg/kg), day 2 to day 5): did not have loose stools
Statistics of loose stools in animals ([8]; high-dose group (1.6 mg/kg), Day 1, animals with loose stool/animals in group): 1/10
Statistics of loose stools in animals ([8]; high-dose group (1.6 mg/kg), Day 2): 0/10
Statistics of loose stools in animals ([8]; high-dose group (1.6 mg/kg), Day 3): 0/10
Statistics of loose stools in animals ([8]; high-dose group (1.6 mg/kg), Day 4): 0/10
Statistics of loose stools in animals ([8]; high-dose group (1.6 mg/kg), Day 5): 0/10
Statistics of loose stools in animals ([8]; low-dose group (0.12 mg/kg), Day 1): 0/10
Statistics of loose stools in animals ([8]; low-dose group (0.12 mg/kg), Day 2): 0/10
Statistics of loose stools in animals ([8]; low-dose group (0.12 mg/kg), Day 3): 0/10
Statistics of loose stools in animals ([8]; low-dose group (0.12 mg/kg), Day 4): 0/10
Statistics of loose stools in animals ([8]; low-dose group (0.12 mg/kg), Day 5): 0/10
loose stools (in words) ([8]; low-dose group (0.12 mg/kg), continuous administration for 5 days): did not have loose stools
IC50 [5]: < 50 nM
activity of inhibiting SGLT1 (in words) [1]: significant activity of inhibiting SGLT1
IC50 [1]: 0.37 nM
absorption in vivo after oral administration (in words) [2]: almost no absorption in vivo
detection in vivo after oral administration (in words) [2]: hardly detected in vivo
bioavailability [2]: < 1.5%
loose stools in experimental animals [4]: no loose stools were observed
SMILES: C#CCN(C)CCNC(=O)CCCc1ccc(Cc2cc([C@@H]3O[C@H](SC)[C@@H](O)[C@H](O)[C@H]3O)ccc2C)cc1 [Example 5]
Remaining percentage of compound ([7]; incubation 12 h): +++ (the remaining percentage being: 70% to 90%)
Remaining percentage of compound ([7]; incubation 24 h): +++ (the remaining percentage being: 70% to 90%)
blood glucose level of mice in OGTT ([9]; high-dose group (1.6 mg/kg)): significantly reduce the blood glucose level
blood glucose level of mice in OGTT ([9]; low-dose group (0.12 mg/kg)): significantly reduce the blood glucose level
blood sugar level of rats in OGTT [3]: significantly reduce the blood sugar level
dose-effect relationship of blood glucose reduction ([10]; Example 5 0.02, 0.06, 0.1 mg/kg combined with sitagliptin 20 mg/kg): there is a dose-effect relationship
blood glucose level of diabetic model animals ([10]; Example 5 0.02, 0.06 or 0.1 mg/kg combined with sitagliptin 20 mg/kg): significantly reduce the blood glucose level

Further lines, the compound ahead of its results:

SMILES: CCOc1ccc(Cc2cc([C@@H]3O[C@H](CO)[C@@H](O)[C@H](O)[C@H]3O)ccc2Cl)cc1 [Dapagliflozin, reference compound]
absorption in vivo after oral administration (in words) [2]: absorbed into the blood
bioavailability [2]: 73%

SMILES: CS[C@H]1O[C@@H](c2ccc(C)c(Cc3ccc(CCCC(=O)NCCN4CCCCC4)cc3)c2)[C@H](O)[C@@H](O)[C@@H]1O [Example 3]
blood sugar level of rats in OGTT [3]: significantly reduce the blood sugar level
activity of inhibiting SGLT1 (in words) [1]: significant activity of inhibiting SGLT1
IC50 [1]: 0.83 nM
loose stools in experimental animals [4]: no loose stools were observed

SMILES: C#CCN(C)CCNC(=O)CCOc1ccc(Cc2cc([C@@H]3O[C@H](SC)[C@@H](O)[C@H](O)[C@H]3O)ccc2C)cc1 [Example 6]
IC50 [5]: < 50 nM

SMILES: CS[C@H]1O[C@@H](c2ccc(C)c(Cc3ccc(CCCC(=O)NCCN(C)Cc4cn(C5CC5)nn4)cc3)c2)[C@H](O)[C@@H](O)[C@@H]1O
lipid solubility relative to Example 5 [6]: better lipid solubility
water solubility relative to Example 5 [6]: better lipid solubility and water solubility

SMILES: C#CCN(C)CCNC(=O)C/C=C/c1ccc(Cc2cc([C@@H]3O[C@H](SC)[C@@H](O)[C@H](O)[C@H]3O)ccc2C)cc1 [Example 8]
IC50 [5]: < 50 nM
